# Reference: patent US10550105B2 (Ribon Therapeutics Inc., priority 2018, dated 2020)
# Target: PARP7 (Homo sapiens (Human), UniProt Q7Z3E1)
# Assay: Enzymatic assay for inhibition of PARP7: TR-FRET displacement of biotinylated Probe A from the TIPARP active site
# Type: binding
# Settings: Table A-1
# Outline: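 Compound dose-response series were incubated with TIPARP and biotinylated Probe A, with a final 30 min step at 25 °C. TR-FRET was read at 320 nm excitation, 615/665 nm emission and 90 μs delay, using the 665/615 ratio to measure complex formation. % inhibition was fitted with a floating or fixed (1) Hill coefficient.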
# Sequence of PARP7 (Q7Z3E1 whole entry): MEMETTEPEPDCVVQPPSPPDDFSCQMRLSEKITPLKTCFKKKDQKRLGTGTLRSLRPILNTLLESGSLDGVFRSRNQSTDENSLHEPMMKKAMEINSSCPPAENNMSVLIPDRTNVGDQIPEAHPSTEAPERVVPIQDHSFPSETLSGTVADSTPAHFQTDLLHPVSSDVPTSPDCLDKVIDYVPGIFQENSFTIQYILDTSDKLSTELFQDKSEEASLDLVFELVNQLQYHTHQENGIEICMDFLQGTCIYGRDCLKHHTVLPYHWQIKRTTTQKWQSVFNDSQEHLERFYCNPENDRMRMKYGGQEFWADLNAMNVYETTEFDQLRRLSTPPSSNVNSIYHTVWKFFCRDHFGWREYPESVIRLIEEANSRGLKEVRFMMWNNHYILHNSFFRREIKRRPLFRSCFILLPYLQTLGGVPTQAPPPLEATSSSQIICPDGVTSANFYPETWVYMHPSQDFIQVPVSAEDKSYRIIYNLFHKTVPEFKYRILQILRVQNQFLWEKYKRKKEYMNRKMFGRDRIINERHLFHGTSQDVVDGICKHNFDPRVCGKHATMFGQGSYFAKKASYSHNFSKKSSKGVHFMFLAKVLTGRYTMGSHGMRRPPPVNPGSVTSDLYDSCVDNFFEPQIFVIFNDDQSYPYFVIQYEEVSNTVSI
row,SMILES,IC50 [nM]
1,"O=c1[nH]ncc(N2Cc3c(F)ccc(OC4CCNCC4)c3C2)c1C(F)(F)F [Example 291, 5-(4-Fluoro-7-(piperidin-4-yloxy)isoindolin-2-yl)-4-(trifluoromethyl)pyridazin-3(2H)-one]",100 to 1000
2,"N#Cc1ccc(N2CCN(C(=O)[C@H]3CCC[C@@H](OC[C@@H]4CCCN4c4cn[nH]c(=O)c4C(F)(F)F)C3)CC2)nc1 (single isomer, unassigned) [Example 57 Isomer C]",100 to 1000
3,"COc1cc(F)c2c(c1)CN(c1cn[nH]c(=O)c1C(F)(F)F)C2 [Example 273, 5-(4-Fluoro-6-methoxyisoindolin-2-yl)-4-(trifluoromethyl)pyridazin-3(2H)-one]",< 100
4,"C[C@@H](COCCS(=O)(=O)N1CCN(c2ncc(C(F)(F)F)s2)CC1)Nc1cn[nH]c(=O)c1Cl [Example 731, (S)-4-Chloro-5-((1-(2-((4-(5-(trifluoromethyl)thiazol-2-yl)piperazin-1-yl)sulfonyl)ethoxy)propan-2-yl)amino)pyridazin-3(2H)-one]",< 100
5,"O=c1[nH]ncc(N2Cc3cc(F)c(OCCN4CCOCC4)cc3C2)c1C(F)(F)F [Example 19, 5-[5-fluoro-6-[2-(morpholin-4-yl)ethoxy]-2,3-dihydro-1H-isoindol-2-yl]-4-(trifluoromethyl)-2,3-dihydropyridazin-3-one]",< 100
6,"C[C@@H](COCCC(=O)N1CCC(c2ncc(C(F)(F)F)cn2)CC1)Nc1cn[nH]c(=O)c1C(F)(F)F [Example 664, (S)-5-((1-(3-Oxo-3-(4-(5-(trifluoromethyl)pyrimidin-2-yl)piperidin-1-yl)propoxy)propan-2-yl)amino)-4-(trifluoromethyl)pyridazin-3(2H)-one]",< 100
7,"Cc1c(N2Cc3ccccc3C2)cn[nH]c1=O [Example 159, 5-(Isoindolin-2-yl)-4-methylpyridazin-3(2H)-one]",≥ 1000
8,"N#Cc1ccc(N2CCN(C(=O)CCOCCOc3cn[nH]c(=O)c3C#N)CC2)nc1 [Example 554, 5-(2-[3-[4-(5-Cyanopyridin-2-yl)piperazin-1-yl]-3-oxopropoxy]ethoxy)-3-oxo-2,3-dihydropyridazine-4-carbonitrile]",< 100
9,"N#Cc1ccc(OC2CCC(NC(=O)COC[C@@H]3CCCN3c3cn[nH]c(=O)c3C(F)(F)F)CC2)nc1 (stereo partly drawn) [Example 47, N-[4-[(5-cyanopyridin-2-yl)oxy]cyclohexyl]-2-[[(2S)-1-[6-oxo-5-(trifluoromethyl)-1,6-dihydropyridazin-4-yl]pyrrolidin-2-yl]methoxy]acetamide]",< 100

# More lines, now with the values ahead:
row,IC50 [nM],SMILES
1,< 100,"N#Cc1ccc(NCCC(=O)Nc2cccc(OC[C@@H]3CCCN3c3cn[nH]c(=O)c3C(F)(F)F)c2)nc1 [Example 85, 3-[(5-cyanopyridin-2-yl)amino]-N-(3-[[(2S)-1-[6-oxo-5-(trifluoromethyl)-1,6-dihydropyridazin-4-yl]pyrrolidin-2-yl]methoxy]phenyl)propanamide]"
2,< 100,"O=c1[nH]ncc(N2Cc3cccc(OCCO)c3C2)c1C(F)(F)F [Example 181, 5-(4-(2-Hydroxyethoxy)isoindolin-2-yl)-4-(trifluoromethyl)pyridazin-3(2H)-one]"
3,< 100,"O=C(c1cccc(OC[C@@H]2CCCN2c2cn[nH]c(=O)c2C(F)(F)F)c1)N1CCN(c2ccc(C(F)(F)F)cn2)CC1 [Example 440, (S)-4-(Trifluoromethyl)-5-(2-((3-(4-(5-(trifluoromethyl)pyridin-2-yl)piperazine-1-carbonyl)phenoxy)methyl)pyrrolidin-1-yl)pyridazin-3(2H)-one]"
4,< 100,"N#Cc1ccc(N2CCN(C(=O)c3ccnc(OC[C@H]4c5ccccc5CN4c4cn[nH]c(=O)c4C(F)(F)F)n3)CC2)nc1 [Example 38 Isomer B, 6-[4-[(2-[[(1R)-2-[6-Oxo-5-(trifluoromethyl)-1,6-dihydropyridazin-4-yl]-2,3-dihydro-1H-isoindol-1-yl]methoxy]pyrimidin-4-yl)carbonyl]piperazin-1-yl]pyridine-3-carbonitrile]"
